In one series the test system is influenza A virus. The note with it: cited from earlier work.
Another series concerns influenza B virus. The note with it: cited from earlier work.
Another series deals with AIDS virus (HIV). The note with it: cited from earlier work.
In series [1] the test system is GMK cells. Description: Cytotoxicity (HSV UV-238 strain test), microscopic.
The test system of series [2] is HSV-1 (Miyama strain). Briefly: In vitro antiviral action on cells infected with HSV-1 (Miyama strain), CPE inhibition, TCID50. The note with it: read-out: Antiviral Activity (ΔTCID50); for log reduction at 5 µg/mL: 5 μg/ml; for log reduction at 25 µg/mL: 25 μg/ml. It is filed as cell-based, Herpes simplex virus type 1.
The test system of a further series is HSV (UV-238 Strain). Description: Action on HSV (UV-238 strain), CPE inhibition, TCID50. The note with it: read-out: Antiviral Activity (ΔTCID50); for log reduction at 1 µg/mL: 1 μg/ml; for log reduction at 5 µg/mL: 5 μg/ml; for log reduction at 25 µg/mL: 25 μg/ml. It is filed as cell-based.
Series [3] relates to GMK cells.
A further series deals with HSV-2 (UW-268 strain). Briefly: microbe, parasite or virus in culture. It is filed as cell-based, Herpes simplex virus type 2. Particulars: Human alphaherpesvirus 2, Vero, read-out: Antiviral Activity (ΔTCID50).
In series [4] the test system is vaccinia viruses (D1E strain). Description: microbe, parasite or virus in culture. Format: cell-based. Particulars: Orthopoxvirus vaccinia, Vero, read-out: Antiviral Activity (ΔTCID50).
In series [5] the test system is influenza viruses (A/PR/8 strain). Briefly: microbe, parasite or virus in culture. Format: cell-based, influenza virus A/PR/8. The note with it: unidentified influenza virus, PR/8, MDCK, read-out: Antiviral Activity (ΔTCID50).
For another series, the system named is HSV-1 (KOS strain). Description: microbe, parasite or virus in culture. Format: cell-based, Herpes simplex virus type 1. The note with it: Human alphaherpesvirus 1, Vero, read-out: Antiviral Activity (ΔTCID50).
Series [6] in a line: Acute toxicity testing, oral, mice (LD50, Litchfield-Willcoxon). Particulars: mouse, in vivo, ICR male mice, 7 days observation. From the text:
The compounds to be tested in the form of a 2% aqueous solution of Tween 80 were orally administrated to ICR male mice (weights: 24-30 g), five for each group.

Series [7] concerns influenza viruses (A/PR/8 strain). Description: microbe, parasite or virus in culture. It is filed as cell-based, influenza virus A/PR/8. Particulars: unidentified influenza virus, read-out: Antiviral Activity (ΔTCID50).
For series [8], the system named is HSV-1 (Miyama strain). Briefly: In vivo antiviral action: prolongation of life of mice infected with HSV-1. The note with it: abdominal route, once a day, control 6.1 ± 0.6. Also on record: species or system BALB/c male mice. The text has this:
BALB/c male mice of three weeks old, 10 for each group, were abdominally seeded with an infectious amount, 10LD50, of HSV-1(Miyama strain). One hour later and over six days after the next day, once a day, Compound (5) referred to in Table 1 was continuously administrated to each animal via an abdominal route.

Where [9] appears, read: Human alphaherpesvirus 1, 1 μg/ml, GMK cells.
Setting [10] is: Human alphaherpesvirus 1, GMK cells.

The structures appear in SMILES notation. Read-outs that look alike come from different tables or passages of the source.

This is an account of results in patent US5356880A, “Glycyrrhetinic acid derivatives” (priority 1991, dated 1994).

On to `CC(N)C12CC3CC(CC(C3)C1)C2` (racemic) [remantadine], for which the “efficacy against influenza A virus” value with influenza A virus is recorded as “efficacious against influenza A virus”. Moreover, in the series with influenza B virus, the “efficacy against influenza B virus” value is “not against influenza B virus”.
Turning to `Cc1cn([C@H]2C[C@H](N=[N+]=[N-])[C@@H](CO)O2)c(=O)[nH]c1=O` [AZT], the “effect on AIDS” value with AIDS virus (HIV) was “delay the development of AIDS, but cannot accelerate healing”.
On to `NC12CC3CC(CC(C3)C1)C2` [Amantadine], for which the “efficacy against influenza A virus” value in the series on influenza A virus is “efficacious against influenza A virus”. For the same compound, in the series with influenza B virus, the “efficacy against influenza B virus” value is recorded as “not against influenza B virus”.
With `Nc1ncnc2c1ncn2[C@@H]1O[C@H](CO)[C@@H](O)[C@@H]1O` [Ara-a, reference compound], the magnitude of cytotoxicity result with GMK cells [1] (1 μg/ml) and in the series with GMK cells [3] (1 μg/ml) was “-” throughout. The log reduction at 1 µg/mL in the series with HSV-1 (Miyama strain) [2] (setting [9]) came out at 1.2; with HSV (UV-238 Strain) it was 1.1. Moreover, the log reduction at 5 µg/mL in the series with HSV-1 (Miyama strain) [2] (setting [10]) amounted to 1.5; in the series with HSV (UV-238 Strain) it was 1.7. The log reduction at 25 µg/mL was determined as 2.5 in the series on HSV-1 (Miyama strain) [2] (setting [10]) and 2.6 with HSV (UV-238 Strain).
Take `CC1(C)[C@@H](OC(=O)CCC(=O)O)CC[C@]2(C)[C@H]3C(=O)C=C4[C@@H]5C[C@@](C)(C(=O)O)CC[C@]5(C)CC[C@@]4(C)[C@]3(C)CC[C@@H]12` [Carbenoxolone, reference compound]: the log reduction at 1 µg/mL in the series on HSV-1 (Miyama strain) [2] (setting [9]) worked out at 0.2. In addition, in the series on HSV-1 (Miyama strain) [2] (setting [10]), the log reduction at 5 µg/mL is 0.3 and the log reduction at 25 µg/mL stood at 2.4. Besides, in the series on HSV (UV-238 Strain), the log reduction at 1 µg/mL came to 0.2, the log reduction at 5 µg/mL was 0.2 and the log reduction at 25 µg/mL came out at 2.2.
For `COc1ccccc1N1CCN(C(=O)[C@@]2(C)CC[C@]3(C)CC[C@]4(C)C(=CC[C@@H]5[C@@]6(C)CC[C@H](O[C@@H]7O[C@H](CO)[C@@H](O)[C@H](O)[C@H]7O)C(C)(C)[C@@H]6CC[C@]54C)[C@@H]3C2)CC1` [Comp. Ex. 25, 1-(3β-(β-D-glucopyranosyloxy)-18β-olean-12-en-30-oyl)-4-(2-methoxyphenyl)piperazine], the log reduction at 1 µg/mL in the series with HSV-2 (UW-268 strain) is 1.85; in series [4] it was 1.7; in [5] it was 1.31; in the series on HSV-1 (KOS strain), 2.04; in the series on HSV-1 (Miyama strain) [2] (Human alphaherpesvirus 1, GMK), 1.86. For the same compound, the log reduction at 5 µg/mL with HSV-2 (UW-268 strain) was 2.92; in series [4] it was 2.67; in [5], 1.86; in the series with HSV-1 (KOS strain) it was greater than 3.19; in the series with HSV-1 (Miyama strain) [2] (setting [10]), greater than 3. Besides, the log reduction at 25 µg/mL with HSV-2 (UW-268 strain) is greater than 3.3; in series [4], 2.53; in series [5], 2.22; in the series on HSV-1 (KOS strain) it was greater than 3.31; with HSV-1 (Miyama strain) [2] (setting [10]), greater than 3.56. Moreover, the median lethal dose (LD50) (in general, the dose expected to kill half of the subjects tested) at 168 h in series [6] was greater than 1000 mg/kg. The magnitude of cytotoxicity result with GMK cells [3] (1 μg/ml) is given as “-”; in the series with GMK cells [3] (5 μg/ml) it was “-”; in the series on GMK cells [3] (25 μg/ml), “±”.
`O=c1[nH]cnc2c1ncn2[C@H]1CC[C@@H](CO)O1` [DDI]: in the series with AIDS virus (HIV), the “effect on AIDS” value is “delay the development of AIDS, but cannot accelerate healing”.
Regarding `NC(=O)c1ncn([C@@H]2O[C@H](CO)[C@@H](O)[C@H]2O)n1` [Ribavirin, reference compound], the log reduction at 1 µg/mL in [7] (PR/8, 1 μg/ml, MDCK cells) was 0.8. Also, in series [7] (PR/8, 5 μg/ml, MDCK cells), the log reduction at 5 µg/mL is 1.8. Moreover, the log reduction at 20 µg/mL in [7] (PR/8, 20 μg/ml, MDCK cells) was found to be 3.2. For the same compound, the magnitude of cytotoxicity result with MDCK cells (1 μg/ml), with MDCK cells (5 μg/ml) and in the series with MDCK cells (20 μg/ml) was “-” throughout.
As to `COc1ccccc1N1CCN(C(=O)[C@@]2(C)CC[C@]3(C)CC[C@]4(C)C(=CC[C@@H]5[C@@]6(C)CC[C@H](OC(=O)/C=C\C(=O)O)C(C)(C)[C@@H]6CC[C@]54C)[C@@H]3C2)CC1` [Table 1, Comp. (5), 1-[3β-(3-carboxy-cis-propenoyloxy)-18β-olean-12-en-30-oyl]-4-(2-methoxyphenyl)piperazine], the log reduction at 1 µg/mL is 0.8 in series [7] (PR/8, MDCK); 1 with HSV-1 (Miyama strain) [2] (setting [9]); 1.3 in the series on HSV (UV-238 Strain). Further, the log reduction at 5 µg/mL in series [7] (PR/8, MDCK) worked out at 1.2; in the series with HSV-1 (Miyama strain) [2] (setting [10]), 2.1; in the series with HSV (UV-238 Strain), 2.2. The log reduction at 20 µg/mL in series [7] (PR/8, MDCK) was 2.1. Also, the magnitude of cytotoxicity result in the series on MDCK cells, in the series with GMK cells [1] (1 μg/ml), in the series with GMK cells [1] (5 μg/ml), with GMK cells [1] (25 μg/ml), in the series with GMK cells [3] (1 μg/ml) and with GMK cells [3] (5 μg/ml) was “-” throughout. Moreover, the magnitude of cytotoxicity result in the series with GMK cells [3] (25 μg/ml) is “-”. Moreover, the log reduction at 25 µg/mL stood at 3.1 with HSV-1 (Miyama strain) [2] (setting [10]) and 2.8 in the series with HSV (UV-238 Strain). The “Mean Survival Days (average ± standard error)” value with HSV-1 (Miyama strain) [8] (5 mg/Kg) stood at 7.9 ± 1.1 days; in the series on HSV-1 (Miyama strain) [8] (10 mg/Kg, p < 0.05 (t-Test)) it was 8.6 ± 0.7 days; in the series on HSV-1 (Miyama strain) [8] (20 mg/Kg, p < 0.001 (t-Test)) it was 11.2 ± 1.1 days.
Take `COc1ccccc1N1CCN(C(=O)[C@@]2(C)CC[C@]3(C)CC[C@]4(C)C(=CC[C@@H]5[C@@]6(C)CC[C@H](O)C(C)(C)[C@@H]6CC[C@]54C)[C@@H]3C2)CC1` [Table 1, Comp. (9), 1-(3β-hydroxy-18β-olean-12-en-30-oyl)-4-(2-methoxyphenyl) piperazine]: the log reduction at 1 µg/mL in series [7] (PR/8, MDCK) was determined as 0.5; in the series on HSV-1 (Miyama strain) [2] (setting [9]), 1.3; in the series on HSV (UV-238 Strain) it was 0.7. Further, the log reduction at 5 µg/mL in [7] (PR/8, MDCK) stood at 1; with HSV-1 (Miyama strain) [2] (setting [10]), 1.2; in the series on HSV (UV-238 Strain), 1.3. In addition, the log reduction at 20 µg/mL in series [7] (PR/8, MDCK) is 1.3. Further, the magnitude of cytotoxicity result with GMK cells [1] (1 μg/ml) and in the series with GMK cells [3] (1 μg/ml) was “-” each time. Further, the log reduction at 25 µg/mL in the series with HSV (UV-238 Strain) was found to be 2.5.
For the compound `CC(C)=CCCC(C)=CCCC(C)=CCN1CCN(C(=O)[C@@]2(C)CC[C@]3(C)CC[C@]4(C)C(=CC[C@@H]5[C@@]6(C)CC[C@H](OC(=O)/C=C\C(=O)O)C(C)(C)[C@@H]6CC[C@]54C)[C@@H]3C2)CC1` [Table 1, Comp. (10)], the log reduction at 1 µg/mL in the series with HSV-1 (Miyama strain) [2] (setting [9]) turned out to be 0.7. For the same compound, in the series on HSV-1 (Miyama strain) [2] (setting [10]), the log reduction at 5 µg/mL came out at 2 and the log reduction at 25 µg/mL is 1.9. For the same compound, the magnitude of cytotoxicity entry in the series on GMK cells [3] (1 μg/ml) is “-”.
On to `CC1(C)[C@@H](OCC(=O)O)CC[C@]2(C)[C@H]3CC=C4[C@@H]5C[C@@](C)(C(=O)O)CC[C@]5(C)CC[C@@]4(C)[C@]3(C)CC[C@@H]12` [Table 1, Comp. (15), disodium-3β-carboxymethoxy-18β-olean-12-en-30-oate], for which the log reduction at 1 µg/mL in the series on HSV-1 (Miyama strain) [2] (setting [9]) amounted to 0. For the same compound, in the series on HSV-1 (Miyama strain) [2] (setting [10]), the log reduction at 5 µg/mL stood at 0.3 and the log reduction at 25 µg/mL worked out at 1. Further, the magnitude of cytotoxicity entry in the series on GMK cells [3] (1 μg/ml) is “-”. Moreover, the magnitude of cytotoxicity result in the series on GMK cells [3] (5 μg/ml) is recorded as “-”.
On to `CC1(C)[C@@H](OCCC(=O)O)CC[C@]2(C)[C@H]3CC=C4[C@@H]5C[C@@](C)(C(=O)O)CC[C@]5(C)CC[C@@]4(C)[C@]3(C)CC[C@@H]12` [Table 1, Comp. (18), disodium-3β-(2-carboxyethoxy)-18β-olean-12-en-30-oate], for which, in the series on HSV-1 (Miyama strain) [2] (setting [9]), the log reduction at 1 µg/mL was found to be 0.7. Also, in the series with HSV-1 (Miyama strain) [2] (setting [10]), the log reduction at 5 µg/mL is 1.6 and the log reduction at 25 µg/mL came out at 1.2. The magnitude of cytotoxicity result in the series on GMK cells [3] (1 μg/ml) is “-”. In addition, in the series on GMK cells [3] (5 μg/ml), the magnitude of cytotoxicity result is recorded as “-”.
